What was measured:
[1] = Lipid clearance: % dose remaining in liver of CD-1 mice; format: in vivo; settings: intravenous, 0.5 mg/kg, CD-1 mouse, Table 8a
Text: In contrast, hEPO expression in rats induced by administration of a nanoparticle composition including a compound according to one of formulae (I), (Ia1)-(Ia6), (Ib), (II), (IIa), (III), and (IIIa) was substantially […] than that measured for MC3. […] Tables 7c and 7d show additional protein expressions and clearance data from compositions with various compounds disclosed herein as compared to with MC3. Tables 7e, 7f and 7g show hEPO expression data in CD-1 mice at a dose of 0.5 mpk.

[2] = pKa of nanoparticle compositions; format: physicochemical
[3] = Lipid purity change after storage in EtOH for 96 h at 25 or 37 °C; format: physicochemical
Procedure: Nanoparticle compositions including a therapeutic and/or prophylactic agent can be optimized according to the selection of a compound according to one of formulae (I), (Ia1)-(Ia10), (Ib), (Ic), (Id), (Id1)-(Id10), (Ie), (Ie1)-(Ie6), (II), (IIa), (III), and (IIIa), the selection of additional lipids, the amount of each lipid in the lipid component, and the wt:wt ratio of the lipid component to the therapeutic and/or prophylactic agent, as described herein. Initial studies were performed to compare the delivery efficiency of nanoparticle compositions including various compounds according to one of formulae (I), (Ia1)-(Ia10), (Ib), (Ic), (Id), (Id1)-(Id10), (Ie), (Ie1)-(Ie6), (II), (IIa), (III), and (IIIa). The cationic lipid MC3 is a current standard in the art. Also determined was the stability of nanoparticles of the disclosure, i.e., the purity after storage in EtOH for 96h at 25° C. or 37° C. (Table Id).

[4] = Particle size and polydispersity index of nanoparticle compositions (Zetasizer Nano ZS); format: physicochemical; settings: Table 1c; nanoparticle compositions
Procedure: A Zetasizer Nano ZS (Malvem Instruments Ltd, Malvem, Worcestershire, UK) can be used to determine the particle size, the polydispersity index (PDI) and the zeta potential of the nanoparticle compositions in 1×PBS in determining particle size and 15 mM PBS in determining zeta potential.

[5] = Encapsulation efficiency of RNA (QUANT-IT RIBOGREEN RNA assay); format: physicochemical; settings: Table 1c; nanoparticle compositions
Procedure: For nanoparticle compositions including an RNA, a QUANT-IT™ RIBOGREEN® RNA assay (Invitrogen Corporation Carlsbad, CA) can be used to evaluate the encapsulation of an RNA by the nanoparticle composition. The samples are diluted to a concentration of approximately 5 μg/mL in a TE buffer solution (10 mM Tris-HCl, 1 mM EDTA, pH 7.5). 50 μL of the diluted samples are transferred to a polystyrene 96 well plate and either 50 μL of TE buffer or 50 μL of a 2% Triton X-100 solution is added to the wells. The plate is incubated at a temperature of 37° C. for 15 minutes. The RIBOGREEN® reagent is diluted 1:100 in TE buffer, and 100 μL of this solution is added to each well. The fluorescence intensity can be measured using a fluorescence plate reader (Wallac Victor 1420 Multilablel Counter; Perkin Elmer, Waltham, MA) at an excitation wavelength of, for example, about 480 nm and an emission wavelength of, for example, about 520 nm. The fluorescence values of the reagent blank are subtracted from that of each of the samples and the percentage of free RNA is determined by dividing the fluorescence intensity of the intact sample (without addition of Triton X-100) by the fluorescence value of the disrupted sample (caused by the addition of Triton X-100).

Row | Compound | % Dose Remaining 6 hr [1] | % Dose Remaining 24 hr [1] | pKa ([2]; Table 1b) | Lipid % change purity in EtOH, 25° C., 96 h [3] | Lipid % change purity in EtOH, 37° C., 96 h [3] | PDI [4] | Size (nm) [4] | EE (%) [5] | pKa ([2]; Table 1c)
1 | CCCCCCCCCN(CCCCCCCCC)CCCC1CCN(C(=O)CCN(CCCCCCCCC)CCN(CCCCCCCCC)CCCCCCCCC)CC1 [Compound 85, 3-((2-(Dinonylamino)ethyl)(nonyl)amino)-1-(4-(3-(dinonylamino)propyl)piperidin-1-yl)propan-1-one] | 52.40% | 53.65% | 6.74 |  |  |  |  |  | 
2 | CCCCCCCCCN(CCCOC(=O)CCCCC)CCC(=O)N1CCN(C(=O)CCN(CCCCCCCCC)CCN(CCCCCCCCC)CCCCCCCCC)CC1 [Compound 86, 3-((3-(4-(3-((2-(Dinonylamino)ethyl)(nonyl)amino)propanoyl)piperazin-1-yl)-3-oxopropyl)(nonyl)amino)propyl hexanoate] | 0.16% | 0.12% | 7.58 | 8.1% | 20.8% |  |  |  | 
3 | CCCCCCCCCN(CCCOC(=O)CCCCC)CCCC1CCN(C(=O)CCN(CCCCCCCCC)CCN(CCCCCCCCC)CCCCCCCCC)CC1 [Compound 87, 3-((3-(1-(3-((2-(Dinonylamino)ethyl)(nonyl)amino)propanoyl)piperidin-4-yl)propyl)(nonyl)amino)propyl Hexanoate] | 0.07% | 0.05% | 6.79 |  |  |  |  |  | 
4 | CCCCCCCCCN(CCCCCCCCC)CCN(CCCCCCCCC)CCOC(=O)C1CCN(C(=O)CN(CCCCCCCCC)CCCCCCCCC)CC1 [Compound 129, 2-((2-(Dinonylamino)ethyl)(nonyl)amino)ethyl 1-(dinonylglycyl)piperidine-4-carboxylate] |  | 9.10% |  | 8.46% | 15.47% | 0.24 | 70.3 nm | 96.9% | 5.17
5 | CCCCCCCCCN(CCCCCCCCC)CCN(CCCCCCCCC)CC(=O)N1CCN(C(=O)CN(CCCCCCCCC)CC(C)COC(=O)CCCCC)CC1 (stereo not drawn) [Compound 130, 3-((2-(4-(N-(2-(Dinonylamino)ethyl)-N-nonylglycyl)piperazin-1-yl)-2-oxoethyl)(nonyl)amino)-2-methylpropyl hexanoate] |  | 2.33% |  | 3.54% | 4.46% | 0.23 | 84.9 nm | 98.0% | 6.90
6 | CCCCCCCCCN(CCCCCCCCC)CCN(CCCCCCCCC)CC(=O)N1CCN(C(=O)CN(CCCCCCCCC)CCCOC(=O)CC(C)CCC)CC1 (stereo not drawn) [Compound 131, 3-((2-(4-(N-(2-(Dinonylamino)ethyl)-N-nonylglycyl)piperazin-1-yl)-2-oxoethyl)(nonyl)amino)propyl 3-methylhexanoate] |  | 80.27% |  | 11.96% | 12.43% | 0.17 | 85.4 nm | 98.5% | 7.02
7 | CCCCCCCCCN(CCCCCCCCC)CCN(CCCCCCCCC)CC(=O)N1CCC(CCN(CCCCCCCCC)CC(C)COC(=O)CCCCC)CC1 (stereo not drawn) [Compound 132, 3-((2-(1-(N-(2-(Dinonylamino)ethyl)-N-nonylglycyl)piperidin-4-yl)ethyl)(nonyl)amino)-2-methylpropyl hexanoate] |  | 0.81% |  | 1.84% | 5.54% | 0.23 | 83.1 nm | 98.6% | 6.49
8 | CCCCCCCCCN(CCCOC(=O)CC(C)CCC)CCC1CCN(C(=O)CN(CCCCCCCCC)CCN(CCCCCCCCC)CCCCCCCCC)CC1 (stereo not drawn) [Compound 133, 3-((2-(1-(N-(2-(Dinonylamino)ethyl)-N-nonylglycyl)piperidin-4-yl)ethyl)(nonyl)amino)propyl 3-methylhexanoate] |  | 13.02% |  |  |  |  |  |  | 6.58
9 | CCCCCCCCCN(CCCCCCCCC)CCN(CCCCCCCCC)CC(=O)N1CCN(C(=O)CN(CCCCCCCCC)CCCC(=O)SCCCCC)CC1 [Compound 134, S-Pentyl 4-((2-(4-(N-(2-(dinonylamino)ethyl)-N-nonylglycyl)piperazin-1-yl)-2-oxoethyl)(nonyl)amino)butanethioate] |  | 33.71% |  | 1.60% | 11.81% | 0.21 | 82.1 nm | 96.7% | 6.85
10 | CCCCCCCCCCCCN(CCCOC(=O)CCCCCCC)CC(=O)N1CCN(C(=O)CN(CCCCCCCCC)CCN(CCCCCCCCC)CCCCCCCCC)CC1 [Compound 135, 3-((2-(4-(N-(2-(Dinonylamino)ethyl)-N-nonylglycyl)piperazin-1-yl)-2-oxoethyl)(dodecyl)amino)propyl Octanoate] |  | 0.16% |  | 2.26% | 4.09% | 0.22 | 81.1 nm | 98.6% | 6.90
11 | CCCCC/C=C\CCN(CC/C=C\CCCCC)CCN(CC/C=C\CCCCC)CC(=O)N1CCN(C(=O)CN(CCCCCCCCC)CCCCCCCCC)CC1 [Compound 136, 2-((2-(Di((Z)-non-3-en-1-yl)amino)ethyl)((Z)-non-3-en-1-yl)amino)-1-(4-(dinonylglycyl)piperazin-1-yl)ethan-1-one] |  | 56.18% |  | −0.71% | 0.77% | 0.23 | 72.1 nm | 97.7% | 6.13
12 | CCCCCC/C=C\CC(=O)OCCCN(CCCCCCCCCCCCCC)CC(=O)N1CCN(C(=O)CN(CCCCCCCCC)CCN(CCCCCCCCC)CCCCCCCCC)CC1 [Compound 137, 3-((2-(4-(N-(2-(Dinonylamino)ethyl)-N-nonylglycyl)piperazin-1-yl)-2-oxoethyl)(tetradecyl)amino)propyl (Z)-dec-3-enoate] |  | 0.26% |  | 0.36% | 1.17% | 0.22 | 78.5 nm | 98.8% | 6.93
13 | CCCCC/C=C\CCN(CC/C=C\CCCCC)CCN(CC/C=C\CCCCC)CC(=O)N1CCN(C(=O)CN(CCCCCCCCC)CCCCCCCC(=O)OC)CC1 [Compound 139, Methyl 8-((2-(4-(N-(2-(Di((Z)-non-3-en-1-yl)amino)ethyl)-N—((Z)-non-3-en-1-yl)glycyl)piperazin-1-yl)-2-oxoethyl)(nonyl)amino)octanoate] |  | 0.29% |  | 0.67% | 1.49% | 0.23 | 83.8 nm | 94.8% | 6.15
14 | CCCCCCCCCCCC(=O)N1CCN(C(=O)CN(CCCCCCCCC)CCN(CCCCCCCCC)CCCCCCCCC)CC1 [Compound 143, 1-(4-(N-(2-(Dinonylamino)ethyl)-N-nonylglycyl)piperazin-1-yl)dodecan-1-one] |  | 38.63% |  | 1.10% | 1.80% | 0.21 | 93.7 nm | 97.4% | 7.26
15 | CCCCCCCCCN(CCCCCCCCC)CCN(CCCCCCCCC)CC(=O)N1CCN(C(=O)CCCC(=O)OCCCCCCC)CC1 [Compound 144, Heptyl 5-(4-(N-(2-(dinonylamino)ethyl)-N-nonylglycyl)piperazin-1-yl)-5-oxopentanoate] |  | 3.25% |  | 5.06% | 7.63% | 0.19 | 83.3 nm | 97.2% | 7.59
